Measured values reported in patent US10441582B2 (priority 2016, dated 2019).
Values after ≈ are worked out from the molar mass of the structure shown.

How the values were obtained:
[1] = G5, 20 mg/kg i.v., FIG. 2
Description: Fifty 5-week-old BALB/c nude mice (produced by Central Lab Animal Inc., Korea) were purchased and acclimated for 1 week before use in the test.
The data are expressed as mean±S.D. The results were statistically analyzed by ONE-WAY ANOVA and Student's t-test methods.

[2] = tested on: solid tumor of MKN-45 cells; assay: Solid tumor of MKN-45 cells in BALB/c nude mice, intratumoral administration; assay type: in vivo; conditions: G5, 20 mg/kg intratumoral, FIG. 9
Description: After about 2 weeks, the ascites was collected and centrifuged at 2000 rpm, and the precipitate was washed twice and then stained with 0.4% […] blue, thereby obtaining 5×10^6 cells/100 μL.
In the first administration, a suspension volume of 50 μL/head was used regardless of body weight.
The medium dose used was a 2-fold dilution of the prepared injectable suspension, and the low dose used was a 4-fold dilution of the prepared injectable suspension.
The injectable suspension was dissolved by heating to a temperature of 42 to 45° C. on a water bath. Next, 20 μL of the solution was administered to the apex of the tumor by means of a 0.3 mL insulin syringe, and 10 μL of the solution was administered to each of three points of the bottom side of the tumor. Accordingly, a total of 50 μL of the solution was administered to the tumor.
On the final day of the test, the animals were biopsied and visually observed, and the mean weight of the tumors was measured.

[3] = tested on: MKN-45 cells; assay: MTT assay, cytotoxicity against MKN-45 cells; conditions: Homo sapiens, MKN-45, 24 h, read-out: IC50 (drug concentration that resulted in 50% of cell viability)
Description: The MKN-45 cell line was subcultured with RPMI1640 medium (supplemented with L-glutamine and 10% FBS) in a 5% CO2 incubator at 37° C. for 48 hours, and was then used in the test.
The cell line prepared in (2) above was added to each well.
Then, the cells were cultured in a 5% CO2 incubator at 37° C. for 24 hours, and 50 μL of MTT reagent was added thereto at a concentration of 2 mg/mL. Then, the cells were incubated in an incubator at 37° C. for 4 hours.
The cell culture was centrifuged to remove the supernatant, and 200 μL of DMSO was added to each well to dissolve the MTT-stained precipitate, after which the OD540 value at a wavelength of 540 nm was measured with an ELISA reader.

What does the source list for CC(=O)O[C@H]1C(=O)[C@@]2(C)[C@H]([C@H](OC(=O)c3ccccc3)[C@]3(O)C[C@H](OC(=O)[C@H](O)[C@@H](NC(=O)c4ccccc4)c4ccccc4)C(C)=C1C3(C)C)[C@]1(OC(C)=O)CO[C@@H]1C[C@@H]2O [Paclitaxel]?
Decrease in body weight [1]: significant decrease in body weight; State of solid tumor (photographs) ([2]; 2 weeks after administration): proliferated; Proliferation of tumor cells [2]: ≥ 5 fold; IC50 [3]: 0.1 µg/mL (≈ 0.117 µM)
